These results are taken from US20170334899A1, “AMINO-SUBSTITUTED ISOTHIAZOLES” (Bayer Pharma Aktiengesellschaft, priority 2014, published 2017).

pIC50: −log10 of the molar value.

The target of this experiment is T1, human kinase Mps-1 (Homo sapiens, UniProt P33981).
T1 construct: N-terminally GST-tagged human full length recombinant Mps-1 kinase; GST (N); purchased Invitrogen, Karslruhe, Germany PV4071
T1 sequence (P33981 1-857): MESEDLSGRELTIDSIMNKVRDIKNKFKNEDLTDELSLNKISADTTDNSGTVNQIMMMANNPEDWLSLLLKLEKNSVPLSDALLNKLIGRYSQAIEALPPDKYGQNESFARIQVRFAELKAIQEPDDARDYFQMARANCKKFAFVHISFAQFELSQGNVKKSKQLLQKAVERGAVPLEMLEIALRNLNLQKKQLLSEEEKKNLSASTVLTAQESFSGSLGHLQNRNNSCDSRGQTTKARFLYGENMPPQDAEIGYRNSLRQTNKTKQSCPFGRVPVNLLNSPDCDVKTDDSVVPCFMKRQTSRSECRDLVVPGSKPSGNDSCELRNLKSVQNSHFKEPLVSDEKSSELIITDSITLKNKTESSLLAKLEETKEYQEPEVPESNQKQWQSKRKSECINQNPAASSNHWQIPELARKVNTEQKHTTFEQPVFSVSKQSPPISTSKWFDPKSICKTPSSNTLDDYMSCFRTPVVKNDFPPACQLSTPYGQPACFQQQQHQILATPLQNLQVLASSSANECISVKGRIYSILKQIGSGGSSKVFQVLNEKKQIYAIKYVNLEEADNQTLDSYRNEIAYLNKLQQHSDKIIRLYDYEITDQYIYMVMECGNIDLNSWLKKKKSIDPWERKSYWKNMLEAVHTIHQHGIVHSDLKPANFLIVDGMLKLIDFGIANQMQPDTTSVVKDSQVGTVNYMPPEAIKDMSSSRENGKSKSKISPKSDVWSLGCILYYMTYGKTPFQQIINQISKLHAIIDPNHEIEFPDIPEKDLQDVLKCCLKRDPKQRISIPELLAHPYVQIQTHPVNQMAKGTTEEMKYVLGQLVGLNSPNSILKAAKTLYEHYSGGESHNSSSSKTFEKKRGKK
As to the kind of experiment: Mps-1 kinase assay (TR-FRET). It counts as biochemical. The note with it: Mps-1 TR-FRET kinase assay; avg; read-out: Mps1 avg (IC50 [mol/l]). Put shortly:
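GST-tagged full-length recombinant human Mps-1 (~0.5 nM) pre-incubated 15 min with compound, then reacted 60 min at 22 °C with 10 μM ATP and 1 μM biotinylated peptide in Hepes pH 7.7 buffer. EDTA-stopped; TR-FRET (Eu anti-phospho-Ser/Thr to SA-XLent) 665/620 nm ratio normalised to no-inhibitor and no-enzyme controls.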
(In general: Time-resolved FRET reads energy transfer from a long-lived donor to a nearby acceptor.)
`Cc1nsc(Nc2cnc(C(F)(F)F)cn2)c1C(=O)Nc1ccc(O[C@H]2CCN(CC(F)F)C[C@@H]2F)nc1` [Example 362]: the pIC50 was below 4.70.

`Cc1nsc(Nc2cnc(C(F)(F)F)cn2)c1C(=O)Nc1ccc(OCCN(C)CC(F)(F)F)nc1` [Example 350, 3-methyl-N-(6-{2-[methyl(2,2,2-trifluoroethyl)amino]ethoxy}pyridin-3-yl)-5-{[5-(trifluoromethyl)pyrazin-2-yl]amino}-1,2-thiazole-4-carboxamide]: the pIC50 was at most 4.70.

In the case of `Cc1nsc(Nc2cnc(C(F)(F)F)cn2)c1C(=O)Nc1ccc(OCC2CCN(CC(F)F)CC2)nc1` [Example 345, N-(6-{[1-(2,2-difluoroethyl)piperidin-4-yl]methoxy}pyridin-3-yl)-3-methyl-5-{[5-(trifluoromethyl)pyrazin-2-yl]amino}-1,2-thiazole-4-carboxamide], the pIC50 is below 4.70.

Consider `Cc1nsc(Nc2cnc3ccccc3n2)c1C(=O)Nc1ccc(OC2CCCNC2)nc1` (centres unmarked) [Example 32, 3-Methyl-N-[6-(piperidin-3-yloxy)pyridin-3-yl]-5-(quinoxalin-2-ylamino)-1,2-thiazole-4-carboxannide], for which the pIC50 is 4.82.

With `Cc1nsc(Nc2cnc(C(F)(F)F)cn2)c1C(=O)Nc1ccc(OC[C@@H]2CCCN(CC(F)F)C2)nc1` [Example 375, N-(6-{[(3R)-1-(2,2-difluoroethyl)piperidin-3-yl]methoxy}pyridin-3-yl)-3-methyl-5-{[5-(trifluoromethyl)pyrazin-2-yl]amino}-1,2-thiazole-4-carboxamide], the pIC50 was below 4.70.

`Cc1nsc(Nc2cnc(C(F)(F)F)cn2)c1C(=O)Nc1ccc(OCC2CCCN(CCC(F)(F)F)C2)nc1` (centres unmarked) [Example 328, 3-methyl-5-{[5-(trifluoromethyl)pyrazin-2-yl]amino}-N-(6-{[1-(3,3,3-trifluoropropyl)piperidin-3-yl]methoxy}pyridin-3-yl)-1,2-thiazole-4-carboxamide]: the pIC50 is at most 4.70.

For the molecule `Cc1nsc(Nc2cnc(C(F)(F)F)cn2)c1C(=O)Nc1ccc(O[C@@H]2CCN(CC(F)(F)F)C[C@H]2F)nc1` [Example 367, N-(6-{[(3R,4R)-3-fluoro-1-(2,2,2-trifluoroethyl)piperidin-4-yl]oxy}pyridin-3-yl)-3-methyl-5-{[5-(trifluoromethyl)pyrazin-2-yl]amino}-1,2-thiazole-4-carboxamide], the pIC50 is below 4.70.

For `Cc1nsc(Nc2cnc(C(F)(F)F)cn2)c1C(=O)Nc1ccc(OCC2CCN(CC(F)(F)F)CC2)nc1` [Example 346, 3-methyl-N-(6-{[1-(2,2,2-trifluoroethyl)piperidin-4-yl]methoxy}pyridin-3-yl)-5-{[5-(trifluoromethyl)pyrazin-2-yl]amino}-1,2-thiazole-4-carboxamide], the pIC50 was below 4.70.

With `Cc1nsc(Nc2cnc(C(F)(F)F)cn2)c1C(=O)Nc1ccc(OCCCN(C)CC(F)F)nc1` [Example 353, N-(6-{3-[(2,2-difluoroethyl)(methyl)amino]propoxy}pyridin-3-yl)-3-methyl-5-{[5-(trifluoromethyl)pyrazin-2-yl]amino}-1,2-thiazole-4-carboxamide], the pIC50 was 4.72.

`Cc1nsc(Nc2cnc(C(F)(F)F)cn2)c1C(=O)Nc1ccc(OCC2CCCN(CC(F)(F)F)C2)nc1` (centres unmarked) [Example 326, 3-methyl-N-(6-{[1-(2,2,2-trifluoroethyl)piperidin-3-yl]methoxy}pyridin-3-yl)-5-{[5-(trifluoromethyl)pyrazin-2-yl]amino}-1,2-thiazole-4-carboxamide]: the pIC50 is at most 4.70.

On to `Cc1nsc(Nc2cnc(C(F)(F)F)cn2)c1C(=O)Nc1ccc(N2CCN(CC(F)(F)F)CC2)cn1` [Example 373, 3-methyl-N-{5-[4-(2,2,2-trifluoroethyl)piperazin-1-yl]pyridin-2-yl}-5-{[5-(trifluoromethyl)pyrazin-2-yl]amino}-1,2-thiazole-4-carboxamide], for which the pIC50 is below 4.70.

In the case of `Cc1nsc(Nc2cnc(C(F)(F)F)cn2)c1C(=O)Nc1ccc(OC2CCCN(CCC(F)(F)F)C2)nc1` (centres unmarked) [Example 332, 3-methyl-5-{[5-(trifluoromethyl)pyrazin-2-yl]amino}-N-(6-{[1-(3,3,3-trifluoropropyl)piperidin-3-yl]oxy}pyridin-3-yl)-1,2-thiazole-4-carboxamide], the pIC50 is at most 4.70.

In the case of `Cc1nsc(Nc2cnc(C(F)(F)F)cn2)c1C(=O)Nc1ccc(OC2CCCN(CC(F)F)C2)nc1` (centres unmarked) [Example 330, N-(6-{[1-(2,2-difluoroethyl)piperidin-3-yl]oxy}pyridin-3-yl)-3-methyl-5-{[5-(trifluoromethyl)pyrazin-2-yl]amino}-1,2-thiazole-4-carboxamide], the pIC50 is at most 4.70.

Turning to `Cc1nsc(Nc2cnc(C(F)(F)F)cn2)c1C(=O)Nc1ccc(O[C@@H]2CCCN(CCC(F)(F)F)C2)nc1` [Example 387, 3-methyl-5-{[5-(trifluoromethyl)pyrazin-2-yl]amino}-N-(6-{[(3R)-1-(3,3,3-trifluoropropyl)piperidin-3-yl]oxy}pyridin-3-yl)-1,2-thiazole-4-carboxamide], the pIC50 is at most 4.70.

Consider `Cc1nsc(Nc2cnc(C(F)(F)F)cn2)c1C(=O)Nc1ccc(OCC2CCCN(CC(F)F)C2)nc1` (centres unmarked) [Example 327, N-(6-{[1-(2,2-difluoroethyl)piperidin-3-yl]methoxy}pyridin-3-yl)-3-methyl-5-{[5-(trifluoromethyl)pyrazin-2-yl]amino}-1,2-thiazole-4-carboxamide], for which the pIC50 was at most 4.70.

`Cc1nsc(Nc2cnc(C(F)(F)F)cn2)c1C(=O)Nc1ccc(OC2CCCN(CCF)C2)nc1` (centres unmarked) [Example 329, N-(6-{[1-(2-fluoroethyl)piperidin-3-yl]oxy}pyridin-3-yl)-3-methyl-5-{[5-(trifluoromethyl)pyrazin-2-yl]amino}-1,2-thiazole-4-carboxamide]: the pIC50 is at most 4.70.

Turning to `Cc1nsc(Nc2cnc(C(F)(F)F)cn2)c1C(=O)Nc1ccc(OCCN(C)CCC(F)(F)F)nc1` [Example 351, 3-methyl-N-(6-{2-[methyl(3,3,3-trifluoropropyl)amino]ethoxy}pyridin-3-yl)-5-{[5-(trifluoromethyl)pyrazin-2-yl]amino}-1,2-thiazole-4-carboxamide], the pIC50 is below 4.70.

On to `Cc1nsc(Nc2cnc3ccccc3n2)c1C(=O)Nc1ccc(OC2CCCN(C(=O)OC(C)(C)C)C2)nc1` (centres unmarked) [Example 31, tert-Butyl 3-{[5-({[3-methyl-5-(quinoxalin-2-ylamino)-1,2-thiazol-4-yl]carbonyl}-amino)pyridin-2-yl]oxy}piperidine-1-carboxylate], for which the pIC50 was at most 4.70.

On to `Cc1nsc(Nc2ccc(C#N)cn2)c1C(=O)Nc1ccc(OC2CCNCC2)nc1` [Example 28, 5-[(5-Cyanopyridin-2-yl)amino]-3-methyl-N-[6-(piperidin-4-yloxy)pyridin-3-yl]-1,2-thiazole-4-carboxannide], for which the pIC50 is at most 4.70.

With `Cc1nsc(Nc2cnc(C(F)(F)F)cn2)c1C(=O)Nc1ccc(N2CCN(CC(F)(F)F)CC2)nc1` [Example 360, 3-methyl-N-{6-[4-(2,2,2-trifluoroethyl)piperazin-1-yl]pyridin-3-yl}-5-{[5-(trifluoromethyl)pyrazin-2-yl]amino}-1,2-thiazole-4-carboxamide], the pIC50 was below 4.70.

Take `Cc1nsc(Nc2cnc(C(F)(F)F)cn2)c1C(=O)Nc1ccc(F)c(OCC2CCCN(CC(F)(F)F)C2)c1` (centres unmarked) [Example 337, N-(4-fluoro-3-{[1-(2,2,2-trifluoroethyl)piperidin-3-yl]methoxy}phenyl)-3-methyl-5-{[5-(trifluoromethyl)pyrazin-2-yl]amino}-1,2-thiazole-4-carboxamide]: the pIC50 was at most 4.70.

On to `Cc1nsc(Nc2cnc(C(F)(F)F)cn2)c1C(=O)Nc1ccc(O[C@H]2CCN(CC(F)(F)F)C[C@@H]2F)nc1` [Example 363, N-(6-{[(3S,4S)-3-fluoro-1-(2,2,2-trifluoroethyl)piperidin-4-yl]oxy}pyridin-3-yl)-3-methyl-5-{[5-(trifluoromethyl)pyrazin-2-yl]amino}-1,2-thiazole-4-carboxamide], for which the pIC50 was below 4.70.

As to `Cc1nsc(Nc2cnc(C(F)(F)F)cn2)c1C(=O)Nc1ccc(OCC2CCN(CCC(F)(F)F)CC2)nc1` [Example 347, 3-methyl-5-{[5-(trifluoromethyl)pyrazin-2-yl]amino}-N-(6-{[1-(3,3,3-trifluoropropyl)piperidin-4-yl]methoxy}pyridin-3-yl)-1,2-thiazole-4-carboxamide], the pIC50 was below 4.70.
